Measured values as given in patent EP0590024B1, “TOPICAL COMPOSITION ENHANCING HEALING OF HERPES LESIONS” (VIRO-TEX CORPORATION, priority 1991, dated 1993).
Structures can show the parent of a compound that is named as a salt.

How the values were obtained:
MS strain of HSV-2 = test: Primary genital HSV-2 infection of guinea pigs, topical treatment; type: in vivo; conditions: ACV as 5%
Method: The antiviral activity of several compounds in a primary genital HSV-2 infection of guinea pigs was tested. The experiments were placebo-controlled and uninfected animals were treated with each of the preparations to assess skin irritation. Groups treated with 5% Acyclovir were included as positive controls.
Virus and Viral Inoculation. The MS strain of HSV-2 was utilized to infect animals. Female Hartley strain guinea pigs, Charles River Breeding Laboratories, Kingston, NY, weighing 250 to 300 g were inoculated intravaginally with 1.4 x 10^5 plaque forming units of HSV-2 one hour after being swabbed for the removal of vaginal secretions.
Treatment of Guinea Pigs. Groups of ten infected guinea pigs were treated topically, 0.1 ml intravaginally and 0.1 ml on external genital skin, three times daily, approximately every eight hours, for seven days, beginning either 6 hr or 48 hr after HSV inoculation. Groups of three uninfected animals were used to assess toxicity of each preparation.
Simple Collection and Virus Assays. To determine the effect of treatment on vaginal virus replication, swabs of vaginal secretions were obtained on days 1, 3, 5, 7 and 10 after HSV-2 inoculation, placed in a tube containing 2.0 ml of media, vortexed and frozen at -70°C until titrated for HSV-2. When all samples were collected, they were thawed, diluted serially and HSV-2 titers determined using a microtiter CPE assay in rabbit kidney cells. Mean peak virus titers and areas under the virus titer-day curves were calculated and analyzed.
Scoring of External Genital Lesions. To determine the effect of therapy on the development and spread of external genital lesions, lesion severity was scored on a 0-5+ scale through the primary infection (21 days). Mean peak lesion scores and the area under the lesion score-day curves were calculated and analyzed.
Evaluation of Efficacy. The number of animals infected over the number inoculated, lesion score-day areas and virus titer-day areas under the curve, peak lesion scores and peak virus titers between untreated and placebo-treated or placebo-treated and drug-treated animals were compared using the Mann-Whitney U rank sum test. A p-value of 0.05 or less was considered significant.
The base formulation is as defined for the preferred embodiment of the composition for enhancing […] of viral lesions, but without SLS or anesthetic. Acyclovir (ACV) was used as a positive control (i.e., having antiviral activity). Placebo (PBS) treated animals were compared with an untreated control animal. 2A was compared with the untreated animals and placebo-treated animals. ACV groups were compared to the placebo-treated group. All others were compared to 2A.

HSV-2 [1] = test: Inactivation studies: direct inactivation of HSV-2; parameters: species or system herpes simplex virus type-2; conditions: for concentrations tested at which the compound does not directly inactivate HSV-2: 30 minutes at room temperature, up to highest concentration tested
Method: (§1) A clinical isolate from a genital lesion of Herpes simplex virus, type (HSV-2), was used.
(§2) Stocks of viruses were grown by infecting MRC-5 cells at multiplicity of 0.01 plaque forming units (PFU) per cell and harvested in maintenance medium. Virus was harvested by three cycles of freezing at -70°C and thawing, followed by centrifugation at 1000 x g at 4°C for 15 minutes to remove cell debris. Resulting virus stocks were aliquoted and frozen at -70°C.
To determine if a test compound directly inactivates HSV-2, 0.5 ml of serial dilutions of the compound to be tested was mixed with 0.5 ml of stock HSV-2 (titer = […]) and incubated at room temperature for 30 minutes. After 30 minutes, the compound-virus mixture was diluted 10,000 fold in maintenance medium and virus recovery was determined by inoculating MRC-5 cells. The cells were graded for cytopathic effect after 24 hr, 48 hr, and 72 hr.

HSV-2 [2] = test: Antiviral studies: inhibition of HSV-2 replication in MRC-5 cells (virus yield); type: cell-based, herpes simplex virus type-2
Method: as §1, §2
Antiviral activity, i.e., the ability of the compound to inhibit infection or replication of virus in cells, was measured by infecting confluent monolayers of MRC-5 cells in 12 x 100 mm culture tubes at a multiplicity of infection (MOI) of 3.0 plaque forming units (PFU) per cell of HSV-2 by removing the maintenance medium, washing the monolayers three times with phosphate buffered saline (PBS), and adding 0.1 ml of […] suspended in PBS. The multiplicity of infection was calculated by counting the number of viable cells in a duplicate tube and diluting the stock virus to produce a viral inoculum in a volume of 0.1 ml which contained three times the PFUs as the number of cells counted. After a 60 minute absorption period, the inoculum was removed and 4 mls of test compound at appropriate concentrations in maintenance medium or maintenance medium (control) was added. The tubes were incubated at 37°C for an additional 23 hours. At 24 hours post-infection, the medium was removed and the monolayers were washed twice with PBS and frozen and thawed 3 times in 1 ml of maintenance medium. Virus yields were determined by serial end-point titrations in 96-well tissue culture plates containing MRC-5 cells. All experiments were tested in triplicate. 50% end-points were calculated and titers were expressed in TCID 50 units. Antiviral effect was determined by subtracting the difference between the TCID 50s of the test compound and from the TCID 50s of HSV-2 virus stock titrated in the same experiment and calculated in percentages.

MRC-5 cells = conditions: for concentrations exhibiting significant cytotoxicity: 1440 min
Vero cells = test: Cytotoxicity assay in Vero cells; type: cell-based, green monkey
Method: A continuous line of human embryo lung cells (MRC-5) were grown in Eagle's minimal essential medium (MEM) in Earle's salts supplemented with 2 mM L-glutamine, […] gentamicin, 0.25 mg/ml amphotericin B (Fungisone) ad 10% heat-inactivated fetal calf serum (growth medium). Cells were grown at 37°C in a humidified 5% CO2 atmosphere or in closed flasks. Maintenance medium was the same basic composition, except the concentration of fetal calf serum was 2%. Vero cells (continuous line of green monkey kidney cells) were grown in the same manner as MRC-5 cells.
Cytotoxicity assays were performed in MRC-5 cells and in Vero cells. The test compound was dissolved in maintenance medium at selected concentrations and inoculated onto MRC-5 or Vero cells in 96 well tissue culture plates. Each concentration was inoculated in triplicate. The plates were incubated at 37°C in 5% CO2 and graded for cytotoxicity at 24,48 and 72 hours after inoculation. The highest concentration of compound showing 50% cytotoxicity after 72 hours was designated the end point.

For `Nc1nc2c(ncn2COCCO)c(=O)[nH]1` [ACV, Acyclovir], the “virus titer-day area under the curve (AUC)” value (MS strain of HSV-2; therapy given 6 hr after viral inoculation, vs placebo, p 0.05) was “significantly reduced”, the “mean peak virus titer” value (MS strain of HSV-2; therapy given 6 hr after viral inoculation, vs placebo, p <0.01) was “significantly reduced” and the lesion development (MS strain of HSV-2; therapy initiated 6 hr following HSV-2 inoculation, P <0.05 or less) was “significantly decreased”. The “mean peak lesion score” value (MS strain of HSV-2; therapy initiated 6 hr following inoculation, P <0.001) was “reduced”.

With `CCCCCCCCCCCCOS(=O)(=O)O` [SLS, sodium lauryl (or dodecyl) sulfate] the “direct inactivation of HSV-2” value (HSV-2 [1]; concentration of 0.00032%) was “No inactivation”, the “inhibition of viral replication” value (HSV-2 [2]; 0.0013%) was “does not inhibit” and the “inhibition of viral replication” value (HSV-2 [2]; 0.0025%) was “does not inhibit”. The “concentrations highly toxic to MRC-5 cells” value (MRC-5 cells; MRC-5 cells, time not stated) was “above 0.0025%”.

In the case of `CCCCNc1ccc(C(=O)OCCN(C)C)cc1` [Tetracaine HCl], the “significant toxicity in Vero cells” value (Vero cells; Vero cells, result in words) is reported as “not in Vero cells”, the “concentrations tested at which the compound does not directly inactivate HSV-2” value (HSV-2 [1]) is reported as “up to 2%” and the “inhibition of the replication of HSV-2” value (HSV-2 [2]; 0.25%) is reported as “partially inhibited”. For the same compound, the “inhibition of the replication of HSV-2 / antiviral activity” value (HSV-2 [2]; 0.5%, HCl) was “partially inhibited”, the “inhibition of the replication of HSV-2 / antiviral activity” value (HSV-2 [2]; 0.5%, listed as tetracaine HCl, HCl) was “some antiviral activity” and the “concentrations exhibiting significant cytotoxicity” value (MRC-5 cells; human) was “above 0.03%”.

With `O=C(O)c1cccnc1` [Niacin] the “concentrations tested at which the compound does not directly inactivate HSV-2” value (HSV-2 [1]) was “up to 0.25%”, the “inhibition of the replication of HSV-2 / antiviral activity” value (HSV-2 [2]; concentration not given) was “does not inhibit” and the “concentrations non-toxic in MRC-5 cells” value (MRC-5 cells; human) was no more than 0.25%.

With `CCN(CC)CCOC(=O)c1ccc(N)cc1` [Procaine HCl, Procaine hydrochloride] the “concentrations showing significant toxicity” value (Vero cells; monkey) was “above 2.0%”, the “concentrations tested at which the compound does not directly inactivate HSV-2” value (HSV-2 [1]) was “up to 4%” and the “concentrations unable to inhibit the replication of HSV-2” value (HSV-2 [2]; MOI 3.0, 24 hours post-infection, up to stated concentration) was “up to 2%”. For the same compound, the “inhibition of the replication of HSV-2 / antiviral activity” value (HSV-2 [2]; concentration not given) was “does not” and the “concentrations exhibiting significant cytotoxicity” value (MRC-5 cells; human) was “above 0.25%”.
